# Structures can show the parent of a compound that is named as a salt.
# Tested on: (+)-MK801 binding site of the ionotropic NMDA receptor
# Test: (3H)-(+)-MK801 receptor bonding test on rat cerebral membrane homogenates
# Conditions: 1 nmol/l (3H)-(+)-MK801, rat brain membrane homogenate; for Percentage inhibition of (3H)-(+)-MK801 binding at 10 μM: 10 μmol/l compound, triple determinations; for Ki: calculated from IC50 by Cheng-Prusoff equation
# Experimental: Research to determine the NMDA antagonistic effect of each compound in general formula I was carried out on cerebral membrane homogenates (homogenate of rat brain without cerebellum, pons and medulla oblongata taken from male Wistar rats (Charles River, Sulzfeld, Germany)).
# For this purpose, after separating the cerebellum, pons and medulla oblongata, freshly prepared rat brains were macerated in 50 mmol/l of tris/HCl (pH 7.7) with a Polytron homogeniser (model PT3000, Kinematika AG, Littau, Switzerland) at 6000 revolutions per minute (rpm) for 1 minute with ice cooling and centrifuged for 15 minutes at 4° C. and 60,000 g. After decanting and discarding the supernatant, again placing in 50 mmol/l of tris/HCl (pH 7.7) and macerating the membrane pellet with a homogeniser at 2000 rpm for 1 minute, it was centrifuged again for 15 minutes at 4° C. and 60,000 g. The supernatant was again discarding and the membrane pellet homogenised (2000 rpm for 1 minute) in 50 mmol/l of tris/HCl (pH 7.7) and frozen in aliquots at −70° C.
# For the receptor bonding test, each aliquot was defrosted and then centrifuged for 15 minutes at 4° C. and 60,000 g. After decanting and discarding the supernatant, the membrane pellet was taken up with bonding test buffer and homogenised (2000 rpm for 1 minute). The bonding test buffer was 5 mmol/l tris/HCl (pH 7.7) supplemented with 30 μmol/l of glycine and 100 μmol/l of glutamic acid.
# 1 nmol/l of (^3H)-(+)-MK801 ((5R, 10S)-(+)-5-methyl-10,11-dihydro-5H-dibenzo(a,d)cycloheptane-5,10-imine was used as a radioactively marked ligand (NET-972, NEN, Cologne Germany). The proportion of unspecific bonding was determined in the presence of 10 μmol/l of non-radioactively marked (+)-MK801 (RBI/Sigma, Deisenhofen, Germany). In further batches, each of the compounds of general formula I were added in series of concentrations and the displacement of the radioactive ligand out of its specific bond to the NMDA receptor determined. All the batches were subjected to triple determinations. The batches were each incubated for 40 minutes at 25° C. in a water bath and then harvested for determination of the radioactive ligand bound to the cerebral membrane homogenate by means of filtration through glass-fibre filters (GF/B) (Whatman GF/B, Hassel, Munich, Germany). The radioactivity retained by the glass-fibre filter discs was measured in a β counter (Packard TRI-CARB Liquid Scintillation Analyser 2000CA, Packard Instrument, Meriden, Conn. 06450, USA) after adding a scintillator (“Ready Protein” scintillator, Beckmann Coulter GmhH, Krefeld, Germany).
# The percentage inhibition of the specific bonding of the ligand (^3H)-(+)-MK801 in the presence of 10 μmol/l of each compound of general formula I resulting from the triple batches is used as a measure of the affinity of the compound for the (+)-MK801 binding site of the ionotropic NMDA receptor. From batches with concentration series of these compounds of general formula I, the IC50 values (concentration of substituted compounds with 50% displacement of radioactive ligand out of its specific bond) were calculated in accordance with the law of mass action using non-linear regression. From these IC50 values, the Kj values were calculated in accordance with the Cheng-Prusoff equation (Y. Cheng, W. H. Prusoff, 1973, Biochem. Pharmacol., 22, pp 3099-3108).
Compound,"Percentage inhibition of (3H)-(+)-MK801 binding at 10 μM (hydrochloride, 10 µM) [%]",Ki (hydrochloride) [nM],Percentage inhibition of (3H)-(+)-MK801 binding at 10 μM [%],Ki [nM]
"Cc1ccccc1C(C1CCCCC1(O)CCc1cccc(Cl)c1)N(C)C.Cl (centres unmarked) [Example 26, 1-[2-(3-chlorophenyl)ethyl]-2-(dimethylamino-o-tolylmethyl)cyclohexanol, hydrochloride]",89,1300,,
"CN(C)C(c1ccccc1C(F)(F)F)C1CCCCC1(O)CCc1ccccc1Cl.Cl (centres unmarked) [Example 46, 1-[2-(2-chlorophenyl)ethyl]-2-[dimethylamino-(2-trifluoromethylphenyl)methyl]cyclohexanol, hydrochloride]",,,79,1900
"CN(C)C(c1ccccc1Cl)C1CCCCC1(O)CCCc1ccccc1.Cl (centres unmarked) [Example 36, 2-[(2-chlorophenyl)dimethylaminomethyl]-1-(3-phenylpropyl)cyclohexanol, hydrochloride]",,,85,1900
"CN(C)C(c1ccccc1F)C1CCCCC1(O)CCc1cccc(Cl)c1.Cl (centres unmarked) [Example 21, 1-[2-(3-chlorophenyl)ethyl]-2-(dimethylamino-(2-fluorophenyl)methyl]cyclohexanol, hydrochloride]",,,90,2100
"CN(C)C(c1ccccc1Br)C1CCCCC1(O)CCc1ccccc1Cl.Cl (centres unmarked) [Example 32, 2-[(2-bromophenyl)dimethylaminomethyl]-1-[2-(2-chlorophenyl)ethyl]cyclohexanol, hydrochloride]",,,96,700
"CN(C)C(c1ccccc1F)C1CCCCC1(O)CCc1ccccc1F.Cl (centres unmarked) [Example 29, 2-[dimethylamino-(2-fluorophenyl)methyl]-1-[2-(2-fluorophenyl)ethyl]cyclohexanol, hydrochloride]",,,104,300
"CN(C)C(c1ccccc1Cl)C1CCCCC1(O)CCc1ccccc1Cl.Cl (centres unmarked) [Example 33, 2-[(2-chlorophenyl)dimethylaminomethyl]-1-[2-(2-chlorophenyl)ethyl]cyclohexanol, hydrochloride]",,,93,600
"COc1ccccc1C(C1CCCCC1(O)CCc1ccccc1F)N(C)C.Cl (centres unmarked) [Example 28, 2-[dimethylamino-(2-methoxyphenyl)methyl]-1-[2-(2-fluorophenyl)ethyl]cyclohexanol, hydrochloride]",,,82,2500
"CN(C)C(c1ccc(F)cc1Cl)C1CCCCC1(O)CCc1ccccc1F.Cl (centres unmarked) [Example 41, 2-[(2-chloro4-fluorophenyl)dimethylaminomethyl]-1-[2-(2-fluorophenyl)ethyl]cyclohexanol, hydrochloride]",,,94,1200
"CN(C)C(c1ccccc1)C1CCCCC1(O)CCCc1ccccc1.Cl (single isomer, unassigned; (+)) [Example 51, (+)-2-(dimethylaminophenylmethyl)-1-(3-phenylpropyl)cyclohexanol, hydrochloride]",80,2300,,
"CN(C)C(c1ccccc1C(F)(F)F)C1CCCCC1(O)CCc1ccccc1.Cl (centres unmarked) [Example 27, 2-[dimethylamino-(2-trifluoromethylphenyl)methyl]-1-phenethylcyclohexanol, hydrochloride]",,,67,4200
"CN(C)C(c1ccccc1)C1CCCCC1(O)CCCc1ccccc1.Cl (single isomer, unassigned; (-)) [Example 50, (−)-2-(dimethylaminophenylmethyl)1-(3-phenylpropyl)cyclohexanol, hydrochloride]",87,600,,
"Cc1ccccc1CCC1(O)CCCCC1C(c1ccccc1Cl)N(C)C.Cl (centres unmarked) [Example 35, 2-[(2-chlorophenyl)dimethylaminomethyl]-1-(2-o-tolylethyl)cyclohexanol, hydrochloride]",,,93,1800
"Cc1ccccc1C(C1CCCCC1(O)CCc1ccccc1Cl)N1CCOCC1.Cl (centres unmarked) [Example 24, 1-[2-(2-chlorophenyl)ethyl]-2-(morpholine-4-yl-o-tolylmethyl)cyclohexanol, hydrochloride]",,,48,3700
"Cc1ccccc1C(C1CCCCC1(O)CCc1ccccc1F)N1CCCC1.Cl (centres unmarked) [Example 31, 1-[2-(2-fluorophenyl)ethyl]-2-(pyrrolidine-1-yl-o-tolylmethyl)cyclohexanol, hydrochloride]",,,99,100
"Cc1ccccc1C(C1CCCCC1(O)CCc1ccccc1Cl)N1CCCCC1.Cl (centres unmarked) [Example 25, 1-[2-(2-chlorophenyl)ethyl]-2-(piperidine-1-yl-o-tolylmethyl)cyclohexanol, hydrochloride]",,,89,1400
"CN(C)C(c1ccccc1F)C1CCCCC1(O)CCc1ccc(F)cc1.Cl (centres unmarked) [Example 17, 2-[dimethylamino-(2-fluorophenyl)methyl]-1-[2-(4-fluorophenyl)ethyl]cyclohexanol, hydrochloride]",,,54,5800
"Cc1ccccc1CCC1(O)CCCCC1C(c1ccccc1F)N(C)C.Cl (centres unmarked) [Example 43, 2-[dimethylamino-(2-fluorophenyl)methyl]-1-(2-o-tolylethyl)cyclohexanol, hydrochloride]",,,92,1400
"Cc1ccccc1C(C1CCCCC1(O)CCc1ccccc1Cl)N(C)C (single isomer, unassigned; (+)) [Example 49, (+)-15-1-[2-(2-chlorophenyl)ethyl]-2-(dimethylamino-o-tolylmethylcyclohexanol), hydrochloride]",93,1300,,
"Cc1ccccc1C(C1CCCCC1(O)CCCc1ccccc1)N(C)C.Cl (centres unmarked) [Example 45, 2-(dimethylamino-o-tolylmethyl)1-(3-phenylpropyl)cyclohexanol, hydrochloride]",,,91,1800
"CN(C)C(c1ccccc1C(F)(F)F)C1CCCCC1(O)CCc1ccccc1F.Cl (centres unmarked) [Example 47, 2-[dimethylamino-(2-trifluoromethylphenyl)methyl]-1-[2-(2-fluorophenyl)ethyl]cyclohexanol, hydrochloride]",,,90,1400
"CN(C)C(c1ccccc1F)C1CCCCC1(O)CCCc1ccccc1.Cl (centres unmarked) [Example 44, 2-[dimethylamino-(2-fluorophenyl)methyl]-1-(3-phenylpropyl)cyclohexanol, hydrochloride]",,,91,1400
"CN(C)C(c1ccccc1Br)C1CCCCC1(O)CCc1ccccc1F.Cl (centres unmarked) [Example 34, 2-[(2-bromophenyl)dimethylaminomethyl]-1-[2-(2-fluorophenyl)ethyl]cyclohexanol, hydrochloride]",,,95,400
"Cc1cccc(C(C2CCCCC2(O)CCc2ccccc2Cl)N(C)C)c1.Cl (centres unmarked) [Example 20, 1-[2-(2-chlorophenyl)ethyl]-2-(dimethylamino-m-tolylmethyl)cyclohexanol, hydrochloride]",,,62,4300
"Cc1ccccc1CCC1(O)CCCCC1C(c1ccccc1C)N(C)C.Cl (centres unmarked) [Example 39, 2-(dimethylamino-o-tolylmethyl]-1-(2-o-tolylethyl)cyclohexanol, hydrochloride]",,,90,1400

# From US6784175B2, “Use of substituted 1-amino-5-phenylpentane-3-ol and/or 1-amino-6-phenylhexane-3-ol compounds as medicaments” (Gruenenthal GmbH, priority 2000, dated 2004)
